Measurements reported in patent US20210238139A1, “MODULATORS OF TRYPTOPHAN CATABOLISM” (E-Therapeutics PLC, priority 2018, published 2021).
pIC50: −log10 of the molar value.

System: SK-OV-3 cells
Experiment: Effect of compounds on tryptophan catabolism in SK-OV-3 cell line (inhibition of kynurenine production, LC-MS/MS)
Type: cell-based
Conditions: Homo sapiens, SK-OV-3, 24 h, SK-OV-3 cell line, 24 h incubation, kynurenine in supernatant by LC-MS/MS; read-out: IC50 Ranges (ic50 values for inhibition of Kynurenine production)
Summary of the method: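 Kynurenine in supernatants quantified by LC-MS/MS after 24 h compound exposure (37 °C; top 30 μM, eight 3-fold steps, duplicate) in DMEM F-12 containing 6 mg/mL L-tryptophan. Cells pre-plated overnight in McCoy's 5A with 10% FBS. Viability checked in parallel by ATP luminescence.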

| Compound | pIC50 |
| --- | --- |
| Cc1oncc1N(Cc1ccnc(C(F)(F)F)c1)C(=O)Nc1ccc(C#N)cc1 [Compound 288, 3-(4-cyanophenyl)-1-(5-methylisoxazol-4-yl)-1-[[2-(trifluoromethyl)-4-pyridyl]methyl]urea] | 5.30 to 6.00 |
| COc1ccc(NC(=O)N(Cc2ccc(C)o2)C2CCCC2)cc1 [Compound 290, 1-cyclopentyl-3-(4-methoxyphenyl)-1-[(5-methyl-2-furyl)methyl]urea] | 6.30 to 7.00 |
| Cc1oncc1N(Cc1cccc(C(F)(F)F)c1)C(=O)Nc1ccc(C#N)cc1 [Compound 293, 3-(4-cyanophenyl)-1-(5-methylisoxazol-4-yl)-1-[[3-(trifluoromethyl)phenyl]methyl]urea] | 6.30 to 7.00 |
| CCc1ccc(CN(C(=O)Nc2ccc(C#N)cc2)C2CCCC2)o1 [Compound 295, 3-(4-cyanophenyl)-1-cyclopentyl-1-[(5-ethyl-2-furyl)methyl]urea] | > 7.00 |
| O=C(Nc1ccc(C#CCO)cc1)N(Cc1ccnc(C(F)(F)F)c1)C1CCC1 [Compound 296, 1-cyclobutyl-3-[4-(3-hydroxyprop-1-ynyl)phenyl]-1-[[2-(trifluoromethyl)-4-pyridyl]methyl]urea] | 6.30 to 7.00 |
| Cc1ccc(CN(C(=O)Nc2ccc(C#CCO)cc2)C2CCC2)o1 [Compound 297, 1-cyclobutyl-3-[4-(3-hydroxyprop-1-ynyl)phenyl]-1-[(5-methyl-2-furyl)methyl]urea] | > 7.00 |
| Cc1ccc(CN(C(=O)Nc2ccc(Cl)cc2)c2nonc2C)o1 [Compound 298, 3-(4-chlorophenyl)-1-[(5-methyl-2-furyl)methyl]-1-(4-methyl-1,2,5-oxadiazol-3-yl)urea] | > 7.00 |
| Cc1ccc(CN(C(=O)Nc2ccc(Cl)cc2)c2nc3ccccc3s2)o1 [Compound 300, 1-(1,3-benzothiazol-2-yl)-3-(4-chlorophenyl)-1-[(5-methyl-2-furyl)methyl]urea] | 5.30 to 6.00 |
| Cc1ccc(CN(C(=O)Nc2ccc(OC(F)F)cc2)c2cnoc2C)o1 [Compound 301, 3-[4-(difluoromethoxy)phenyl]-1-[(5-methyl-2-furyl)methyl]-1-(5-methylisoxazol-4-yl)urea] | > 7.00 |
| Cc1ccc(CN(C(=O)Nc2ccc(O)cc2)C2CCCC2)o1 [Compound 303, 1-cyclopentyl-3-(4-hydroxyphenyl)-1-[(5-methyl-furyl)methyl]urea] | < 5.30 |
| Cc1ccc(CN(C(=O)Nc2ccc(C#N)cc2)c2cnoc2)o1 [Compound 304, 3-(4-cyanophenyl)-1-isoxazol-4-yl-1-[(5-methyl-2-furyl)methyl]urea] | 6.30 to 7.00 |
| Cc1ccc(CN(C(=O)Nc2ccc(Cl)cc2)c2cnoc2)o1 [Compound 305, 3-(4-chlorophenyl)-1-isoxazol-4-yl-1-[(5-methyl-2-furyl)methyl]urea] | > 7.00 |
| Cc1ccc(CN(C(=O)N(C)c2ccc(C#CCO)cc2)C2CCC2)o1 [Compound 306, 1-cyclobutyl-3-[4-(3-hydroxyprop-1-ynyl)phenyl]-3-methyl-1-[(5-methyl-2-furyl)methyl]urea] | 5.30 to 6.00 |
| Cc1ccc(CN(C(=O)Nc2ccc3c(c2)CNC3=O)C2CCCC2)o1 [Compound 307] | < 5.30 |
| Cc1nocc1N(Cc1cccc(C(F)(F)F)c1)C(=O)Nc1ccc(-n2cc(CO)nn2)cc1 [Compound 308, 3-[4-[4-(hydroxymethyl)triazol-1-yl]phenyl]-1-(3-methylisoxazol-4-yl)-1-[[3-(trifluoromethyl)phenyl]methyl]urea] | 6.00 to 6.30 |
| N#Cc1ccc(NC(=O)N(Cc2nc3c(s2)COCC3)C2CCCC2)cc1 [Compound 310, 3-(4-cyanophenyl)-1-cyclopentyl-1-(6,7-dihydro-4H-pyrano[4,3-d]thiazol-2-ylmethyl)urea] | 5.30 to 6.00 |
| Cc1ccc(CN(C(=O)Nc2ccc3c(c2)CN(C)C3=O)C2CCCC2)o1 [Compound 312, 1-cyclopentyl-1-[(5-methyl-2-furyl)methyl]-3-(2-methyl-1-oxo-isoindolin-5-yl)urea] | 5.30 to 6.00 |
| Cc1ccc(CN(C(=O)Nc2ccc(C#N)cc2)c2ncccc2C)o1 [Compound 314, 3-(4-cyanophenyl) [(5-methyl-2-furyl)methyl]-1-(3-methyl-2-pyridyl)urea] | 6.30 to 7.00 |
| Cc1nocc1N(Cc1cccc(C(F)(F)F)c1)C(=O)Nc1ccc(C#CCO)cc1 [Compound 315, 3-[4-(3-hydroxyprop-1-ynyl)phenyl]-1-(3-methylisoxazol-4-yl)-1-[[3-(trifluoromethyl)phenyl]methyl]urea] | > 7.00 |
| Cc1ncc(CN(C(=O)Nc2ccc(C#N)cc2)c2conc2C)o1 [Compound 316, 3-(4-cyanophenyl)-(3-methylisoxazol-4-yl)-1-[(2-methyloxazol-5-yl)methyl]urea] | < 5.30 |
| Cc1ccc(CN(C(=O)Nc2ccc(C3COC3)cc2)C2CCCC2)o1 [Compound 317, 1-cyclopentyl-1-[(5-methyl-2-furyl)methyl]-3-[4-(oxetan-3-yl)phenyl]urea] | 5.30 to 6.00 |
| Cc1ccc(CN(C(=O)Nc2ccc(Cl)cc2)c2ncccc2C)o1 [Compound 318, 3-(4-chlorophenyl)-1-[(5-methyl-2-furyl)methyl]-1-(3-methyl-2-pyridyl)urea] | > 7.00 |
| N#Cc1cccc(CN(C(=O)Nc2ccc(C#CCO)cc2)C2CCC2)n1 [Compound 319] | > 7.00 |
| Cc1ccc(CN(C(=O)Nc2ccc(C#N)cc2)c2nonc2C)o1 [Compound 322, 3-(4-cyanophenyl)-1-[(5-methyl-2-furyl)methyl]-1-(4-methyl-1,2,5-oxadiazol-3-yl)urea] | > 7.00 |
| COc1cc(NC(=O)N(Cc2ccc(C)o2)C2CCCC2)ccc1-n1cc(CO)nn1 [Compound 323, 1-cyclopentyl-[4-[4-(hydroxymethyl)triazol-1-yl]-3-methoxy-phenyl]-1-[(5-methyl-2-furyl)methyl]urea] | 6.30 to 7.00 |
| Cc1ccc(CN(C(=O)Nc2ccc(Cl)cc2)c2csnc2C)o1 [Compound 328, 3-(4-chlorophenyl)-1-[(5-methyl-2-furyl)methyl]-1-(3-methylisothiazol-4-yl)urea] | > 7.00 |

Results, then the compound that gave them:

| pIC50 | Compound |
| --- | --- |
| 6.00 to 6.30 | Cc1ncc(CN(C(=O)Nc2ccc(C#N)cc2)C2CCCC2)o1 [Compound 291, 3-(4-cyanophenyl)-1-cyclopentyl-1-[(2-methyloxazol-5-yl)methyl]urea] |
| > 7.00 | Cc1ncc(CN(C(=O)Nc2ccc(C#CCO)cc2)C2CCCC2)o1 [Compound 294, 1-cyclopentyl-3-[4-(3-hydroxyprop-1-ynyl)phenyl]-1-[(2-methyloxazol-5-yl)methyl]urea] |
| 6.30 to 7.00 | CCc1ccc(CN(C(=O)Nc2ccc(C#N)cc2)c2cnoc2C)o1 [Compound 299, 3-(4-cyanophenyl)-1-[(5-ethyl-2-furyl)methyl]-1-(5-methylisoxazol-4-yl)urea] |
| 5.30 to 6.00 | Cn1nccc1N(Cc1ccnc(C(F)(F)F)c1)C(=O)Nc1ccc(Cl)cc1 [Compound 302, 3-(4-chlorophenyl)-1-(2-methylpyrazol-3-yl)-1-[[2-(trifluoromethyl)-4-pyridyl]methyl]urea] |
| 6.30 to 7.00 | Cc1ccc(CN(C(=O)Nc2ccc(C#CCO)cc2)c2nccn2C)o1 [Compound 309, 3-[4-(3-hydroxyprop-ynyl)phenyl]-1-[(5-methyl-2-furyl)methyl]-1-(1-methylimidazol-2-yl)urea] |
| 6.30 to 7.00 | O=C(Nc1ccc(Cl)cc1)N(Cc1nc2c(s1)COCC2)C1CCCC1 [Compound 311, 3-(4-chlorophenyl)-1-cyclopentyl-1-(6,7-dihydro-4H-pyrano[4,3-d]thiazol-2-ylmethyl)urea] |
| 6.30 to 7.00 | Cc1nocc1N(Cc1cccc(C#N)n1)C(=O)Nc1ccc(Cl)cc1 [Compound 313, 3-(4-chlorophenyl)-1-[(6-cyano-2-pyridyl)methyl]-1-(3-methylisoxazol-4-yl)urea] |
| 6.30 to 7.00 | Cc1cn(-c2ccc(NC(=O)N(Cc3ccc(C)o3)C3CCCC3)cc2)nn1 [Compound 320, 1-cyclopentyl-1-[(5-methyl-2-furyl)methyl]-3-[4-(4-methyltriazol-1-yl)phenyl]urea] |
| 5.30 to 6.00 | Cc1ncc(CN(C(=O)Nc2ccc(C#CCO)cc2)c2conc2C)o1 [Compound 321, 3-[4-(3-hydroxyprop-1-ynyl)phenyl]-1-(3-methylisoxazol-4-yl)-1-[(2-methyloxazol-5-yl)methyl]urea] |
| < 5.30 | Cc1ccc(CN(C(=O)Nc2ccc(C#N)cc2)c2ncccn2)o1 [Compound 324, 3-(4-cyanophenyl)-1-[(5-methyl-2-furyl)methyl]-1-pyrimidin-2-yl-urea] |
| < 5.30 | Cc1nocc1N(CC1CCC2(CC1)COC2)C(=O)Nc1ccc(C#N)cc1 [Compound 325, 3-(4-cyanophenyl)-(3-methylisoxazol-4-yl)-1-(2-oxaspiro[3.5]nonan-7-ylmethyl)urea] |
| < 5.30 | Cc1nocc1N(CC1CCC2(CC1)COC2)C(=O)Nc1ccc(Cl)cc1 [Compound 326, 3-(4-chlorophenyl)-1-(3-methylisoxazol-4-yl)-1-(2-oxaspiro[3.5]nonan-7-ylmethyl)urea] |
| 5.30 to 6.00 | Cc1ccc(CN(C(=O)Nc2ccc(Cl)cc2)c2ncccn2)o1 [Compound 327, 3-(4-chlorophenyl)-1-[(5-methyl-2-furyl)methyl]-1-pyrimidin-2-yl-urea] |
